Test results published in patent US12172988B2, “Anticancer and antifungal splice modulators” (priority 2021, dated 2024).
Read-outs that look alike come from different tables or passages of the source.

Columns and labels:
[1] = test system: HCT116 colorectal carcinoma cells; test: MTS cell viability / cell growth inhibition assay; type: cell-based, human; conditions: for cell growth inhibitory activity compared to FD-895: HCT-116 cells; for GI50: Homo sapiens, HCT-116, 72 h
Method: With milligram quantities of 1a-1i at hand, we began our studies to evaluate the relative efficacy of each analogue using cell growth inhibition studies in HCT116 colorectal carcinoma cells. As reported in FIG. 3, GI50 values were collected for each analog after a 72 h treatment using the MTS cell viability assay (Table 12). Under these conditions, the natural FD-895 (1), 3S-FD-895 (1a) 17S-FD-895 (1d), 17-methoxy-FD-895 (1e) provided activities of <10 nM.
HCT-116 cells was cultured in McCoy's 5a (Life Technologies) supplemented with 10% fetal bovine serum (FBS), 2 mM L-glutamine, and 100 U mL^−1 of penicillin and 100 μg mL^−1 of streptomycin at 37° C. in an atmosphere of 5% CO2. Compounds were dissolved in DMSO (MilliporeSigma). Cells were treated with 1-1j in media with ≥0.5% DMSO for 4-72 h.
Studies were conducted in […] cell culture plates. HCT-116 plated at 5×10^3 cells/well were cultured for 24 h and then treated with analogs 1-1j for 4-72 h, then washed twice with 100 μL PBS. PBS (100 μL) was added to each well, followed by 20 μL of CellTiter Aqueous One Solution (Promega). After 2 h at 37° C., absorbance readings were taken at 490 nm (test wavelength) and 690 nm (reference wavelength). GI50 values were calculated in Prism (GraphPad) using greater 3 replicates.
(§1) Cells were treated with 1 or 1a-1j in media (McCoy's 5a (Life Technologies) supplemented with 10% FBS, 2 mM L-glutamine, and 100 U mL^−1 of penicillin and 100 μg mL^−1 of streptomycin 0.5% DMSO) for 4 h or 24 h. Untreated cells were considered were used as negative control. Total RNA was isolated using mirVana miRNA isolation kit (Life Technologies). A 1 μg sample of RNA was subjected to DNAseI from a TURBO DNA free kit (Life Technologies). The cDNA was prepared by using SuperScript III reverse transcriptase kit (Life Technologies). The amount of unspliced RNA for different genes was determined using Power SYBR Green PCR master mix (Applied Biosystems) by qPCR using specific primers for each gene. qPCR using 2.5 μM of each primer was performed on 5 ng of the obtained cDNA. qPCR conditions were as follows: 95° C. for 10 min for one cycle, then 95° C. for 10 min for one cycle, then 95° C. for 30 s, 55° C. for 60 s, 72° C. for 60 s, for 40 cycles using the MXPro. Quantification cycle (Cq) values were identified for each sample, and then RNA levels were calculated using 2-ΔΔCT method. GAPDH was used as a control for normalization. At least three replicates were conducted for each compound. Namely, all genes explored in this study were evaluated from the same cell cultures. Here, individual cultures were used for each compound explored and at least three replicates were used for each compound. While experimental variation occurred between the different compound treatments, the levels of the different intron retention, exon skipping or RNA expression were collected from the same cellular material. Statistics were calculated using a standard one-way ANOVA; p values were represented so that * signifies p<0.0001. HCT116 were treated with analogs 1-1j ranging from 0.1-5000 nM for 72 hours, then cell viability was measured using the MTS assay. GI50 values and confidence intervals were calculated using GraphPad (Table 12).

SF3A1 = test: qPCR splicing analysis, SF3A1 intron retention; type: cell-based, human; conditions: HCT116, 4 h, 20 times GI50, qPCR relative to GAPDH
Method: (§2) HCT116 tumor cells were treated with each analogue at 20 times the G150 value (Table 12) for 4 hours and then cellular RNA was isolated and purified for qPCR. Primers were designed to evaluate intron retention or exon skipping, direct responses to splice modulator treatment. Genes evaluated included those involved in splicing regulation (SF3A1, SF3A3, SF3B1, SF3B2), apoptosis (MCL-1L), protein folding (DNAJB1), and cell cycle regulation (AURKA, PLK-1) relative to the unspliced control GAPDH. For alternative splicing regulator (SF2), primers were designed to evaluate gene expression, which changes in response splice modulator treatment for SF2 relative to the unspliced control GAPDH. (−) denotes untreated cells.
as §2, with “analogues” for “each analogue”, “100 nM (light grey), 250 nM (grey), or 500 nM (black)” for “20 times the G150 value (Table 12)”, “24 h” for “4 hours”, “(MCL-1L), and” for “(MCL-1L),”, “(DNAJB1),” for “(DNAJB1), and cell cycle regulation (AURKA, PLK-1)”, “(—)” for “(−)”
(§3) Next, we turned our efforts to explore the ability of these analogues to modulate splicing. […] We treated cells for 4 h so that we could evaluate early changes in splicing activity, and then cellular RNA was isolated and purified for analyses by qPCR (FIG. 14). Most importantly, none of the concentrations tested led to significant changes in cell viability, ensuring that changes in gene expression were not due to cell death.
(§4) For these studies, we evaluated the expression of genes involved in splicing regulation (SF3A1, SF3A3, SF3B1, SF3B2), apoptosis (MCL-1L), protein folding (DNAJB1), and cell cycle regulation (AURKA, PLK-1) relative to the unspliced control GAPDH. Primers were designed to evaluate intron retention or exon skipping, direct responses to splice modulator treatment. The master splicing regulator alternative splicing factor (SF2) was also evaluated, with the primers for this gene designed to evaluate overall gene expression, which changes in response to splice modulator treatment.
(§5) From this 4 h study (FIG. 14), a small set of analogs (1, 1b, 1g, 1d, 1e, 1i and 1j) were selected to evaluate if effects on splicing when presented for a longer 24 h period. […] Using identical procedures as that used for 4 h, HCT116 cells were treated with three concentrations (100 nM, 250 nM and 500 nM) of each analog for 24 h. Multiple concentrations were used as a means to check further validate the use of the GI50 concentration in our prior study (FIG. 14). As before, none of the concentrations tested led to significant changes in cell viability over the 24-hour time window, ensuring that changes in gene expression were not due to cell death.
Cells were treated with 1 or 1a-1j in media (McCoy's 5a (Life Technologies) supplemented with 10% FBS, 2 mM L-glutamine, and 100 U mL^−1 of penicillin and 100 μg mL^−1 of streptomycin 0.5% DMSO) for 4 h or 24 h. Untreated cells were considered were used as negative control. Total RNA was isolated using mirVana miRNA isolation kit (Life Technologies). A 1 μg sample of RNA was subjected to DNAseI from a TURBO DNA free kit (Life Technologies). The cDNA was prepared by using SuperScript III reverse transcriptase kit (Life Technologies). […]

HCT116 tumor cells = test: qPCR structure-splicing profile over the gene panel; type: cell-based, human; conditions: HCT116, 24 h, 100, 250, 500 nM, compared to 1
Method: as §2, with “analogues” for “each analogue”, “100 nM (light grey), 250 nM (grey), or 500 nM (black)” for “20 times the G150 value (Table 12)”, “24 h” for “4 hours”, “(MCL-1L), and” for “(MCL-1L),”, “(DNAJB1),” for “(DNAJB1), and cell cycle regulation (AURKA, PLK-1)”, “(—)” for “(−)”
as §4, §5, §1

DNAJB1 = test: qPCR splicing analysis, DNAJB1 intron retention; type: cell-based, human; conditions: HCT116, 4 h, 20 times GI50, qPCR relative to GAPDH
Method: as §2
as §2, with “analogues” for “each analogue”, “100 nM (light grey), 250 nM (grey), or 500 nM (black)” for “20 times the G150 value (Table 12)”, “24 h” for “4 hours”, “(MCL-1L), and” for “(MCL-1L),”, “(DNAJB1),” for “(DNAJB1), and cell cycle regulation (AURKA, PLK-1)”, “(—)” for “(−)”
as §3, §4, §5
Cells were treated with 1 or 1a-1j in media (McCoy's 5a (Life Technologies) supplemented with 10% FBS, 2 mM L-glutamine, and 100 U mL^−1 of penicillin and 100 μg mL^−1 of streptomycin 0.5% DMSO) for 4 h or 24 h. Untreated cells were considered were used as negative control. Total RNA was isolated using mirVana miRNA isolation kit (Life Technologies). […]

AURKA = test: qPCR splicing analysis, AURKA exon skipping / expression; type: cell-based, human; conditions: HCT116, 4 h, 20 times GI50, qPCR
Method: as §2
Next, we turned our efforts to explore the ability of these analogues to modulate splicing. […] We treated cells for 4 h so that we could evaluate early changes in splicing activity, and then cellular RNA was isolated and purified for analyses by qPCR (FIG. 14). […]
as §4, with “Primers were designed to evaluate intron retention or exon skipping, direct responses to splice modulator treatment.” left out, “treatment. […]” for “treatment.”
Cells were treated with 1 or 1a-1j in media (McCoy's 5a (Life Technologies) supplemented with 10% FBS, 2 mM L-glutamine, and 100 U mL^−1 of penicillin and 100 μg mL^−1 of streptomycin 0.5% DMSO) for 4 h or 24 h. […] The amount of unspliced RNA for different genes was determined using Power SYBR Green PCR master mix (Applied Biosystems) by qPCR using specific primers for each gene. qPCR using 2.5 μM of each primer was performed on 5 ng of the obtained cDNA. qPCR conditions were as follows: 95° C. for 10 min for one cycle, then 95° C. for 10 min for one cycle, then 95° C. for 30 s, 55° C. for 60 s, 72° C. for 60 s, for 40 cycles using the MXPro. […]

SF2 = test: qPCR gene expression of alternative splicing factor SF2; type: cell-based, human; conditions: HCT116, 4 h, 20 times GI50, qPCR
Method: as §2
as §2, with “analogues” for “each analogue”, “100 nM (light grey), 250 nM (grey), or 500 nM (black)” for “20 times the G150 value (Table 12)”, “24 h” for “4 hours”, “(MCL-1L), and” for “(MCL-1L),”, “(DNAJB1),” for “(DNAJB1), and cell cycle regulation (AURKA, PLK-1)”, “(—)” for “(−)”
as §3, §4
From this 4 h study (FIG. 14), a small set of analogs (1, 1b, 1g, 1d, 1e, 1i and 1j) were selected to evaluate if effects on splicing when presented for a longer 24 h period. […] Using identical procedures as that used for 4 h, HCT116 cells were treated with three concentrations (100 nM, 250 nM and 500 nM) of each analog for 24 h. […]

[2] = estimated, based on E7107; cited from earlier work
PLK-1 = test: qPCR splicing analysis, PLK-1 exon skipping / RNA expression; type: cell-based, human; conditions: HCT116, 4 h, 20 times GI50, qPCR
Method: as §2, §3, §4, §5
Cells were treated with 1 or 1a-1j in media (McCoy's 5a (Life Technologies) supplemented with 10% FBS, 2 mM L-glutamine, and 100 U mL^−1 of penicillin and 100 μg mL^−1 of streptomycin 0.5% DMSO) for 4 h or 24 h. Untreated cells were considered were used as negative control. Total RNA was isolated using mirVana miRNA isolation kit (Life Technologies). A 1 μg sample of RNA was subjected to DNAseI from a TURBO DNA free kit (Life Technologies). […] The amount of unspliced RNA for different genes was determined using Power SYBR Green PCR master mix (Applied Biosystems) by qPCR using specific primers for each gene. qPCR using 2.5 μM of each primer was performed on 5 ng of the obtained cDNA. qPCR conditions were as follows: 95° C. for 10 min for one cycle, then 95° C. for 10 min for one cycle, then 95° C. for 30 s, 55° C. for 60 s, 72° C. for 60 s, for 40 cycles using the MXPro. Quantification cycle (Cq) values were identified for each sample, and then RNA levels were calculated using 2-ΔΔCT method. […] Namely, all genes explored in this study were evaluated from the same cell cultures. […]

SMILES | cell growth inhibitory activity compared to FD-895 [1] | GI50 ([1]; HCT116, 72 hours, MTS assay, 0.1-5000 nM, read-out: GI50 value) | SF3A1 intron 6 retention (level of intron retention) (SF3A1) | splicing activity over the genes tested (HCT116 tumor cells) | DNAJB1 intron 2 retention (level of intron retention) (DNAJB1) | GI50 ([1]; read-out: GI50 value) | GI50 ([1]; read-out: GI50 value (text)) | effect on exon 4 skipping in AURKA (AURKA) | fold less effective compared to 1b ([1]; HCT116 GI50, compared to 1b) | fold less effective compared to 1d ([1]; HCT116 GI50, compared to 1d) | down regulating the expression of SF2 RNA (SF2) | human maximum tolerated dose (MTD) [2] | effect on exon 3 inclusion in PLK-1 (PLK-1)
CC[C@H](OC)[C@@H](C)[C@H]1O[C@@H]1[C@H](OC)[C@H](C)/C=C/C=C(\C)[C@H]1OC(=O)C[C@H](O)CC[C@@](C)(O)[C@@H](OC(C)=O)/C=C/[C@@H]1C [Analog 1e, 17-methoxy-FD-895] | comparable cell growth inhibitor activity as 1 | 0.00221 µM | more effective than 1 | comparable or slightly reduced splice modulatory activity as 1 | highest level of intron retention | – | – | – | – | – | – | – | –
CC[C@H](OC)[C@@H](C)[C@H]1O[C@@H]1[C@H](O)[C@H](C)/C=C/C=C(\C)[C@H]1OC(=O)C[C@@H](O)CC[C@@](C)(O)[C@@H](OC(C)=O)/C=C/[C@@H]1C [Analog 1a, 3S-FD-895] | compromised activity | – | more effective than 1 | – | highest level of intron retention | 0.00221 µM | < 0.01 µM | most potent effect | – | – | – | – | –
CC[C@H](OC)[C@@H](C)[C@H]1O[C@@H]1[C@@H](O)[C@H](C)/C=C/C=C(\C)[C@H]1OC(=O)C[C@H](O)CC[C@@](C)(O)[C@H](OC(C)=O)/C=C/[C@@H]1C [Analog 1h, 7R,17S-FD-895] | – | – | – | – | – | 0.806 µM | 0.806 µM | – | 1.8 fold | 380 fold | – | – | –
CCC(OC)C(C)C1OC1C(O)C(C)/C=C/C=C(\C)C1OC(=O)CC(O)CCC(C)(O)C(OC(C)=O)/C=C/C1C (centres unmarked) [Analog 1, FD-895, reference compound] | potent cell growth inhibitor | – | – | altered the splicing of many of the genes tested | – | – | – | – | – | – | highest efficacy | 4 mg/m^2 | most potent effect
